The target in the assay is human NaV 1.8 channels stably expressed in HEK 293 cells (Homo sapiens (Human), UniProt Q9Y5Y9). Kind of assay: Nav1.8 Qube automated patch-clamp assay. It counts as cell-based. Particulars: human NaV1.8 in HEK 293 cells, whole-cell voltage clamp, room temperature; read-out: IC50 values (nM) for Examples in the Nav1.8 Qube Assay. Here is the method:
Compounds were tested on human NaV 1.8 and NaV1.5 channels stably expressed in human embryo kidney (HEK) 293 cells. Sodium current measurements on Qube® were conducted as follows: automated 384-well patch-clamp assays on the Qube® platform (Sophion Biosciences) were used to measure the inhibition of sodium flow through human NaV1.8 and NaV1.5 channels. Whole-cell voltage-clamp recordings were performed in QChips® (Sophion Biosciences) at room temperature. NaV1.8 current measurements on Qube® were obtained as follows: NaV1.8 currents were elicited with a 10 second 1 Hertz (Hz) pulse train from a holding potential of −90 millivolts (mV), delivered to the cells once per minute in the control condition (DMSO only) and after compound addition. The 1 hertz pulse train stimulation consisted of ten test pulses to 10 millivolt (mV) for 20 milliseconds (ms), each of which was followed by a 980 millisecond repolarization to −67 millivolts. At the end of the 10 second pulse train stimulation, a 5 second hyperpolarization step to −100 millivolt (mV) was used to recover NaV1.8 from fast inactivation. The peak currents elicited by the 1st and 10th test pulses were used to determine IC50 values for resting inhibition and inactivated state inhibition. NaV1.5 current measurements on Qube® were obtained as follows: NaV1.5 currents were elicited with a 20 second 3 Hertz pulse train in the control condition (DMSO only) and after compound addition. The pulse train consisted of sixty 20 millisecond test pulses to 0 millivolt from a holding potential of −80 millivolt (mV). The average peak currents elicited by the last 3 test pulses were used to determine IC50 values for NaV1.5 inhibition.
The following buffers were used for the Qube® recordings: External buffer for NaV1.8 Qube® recording: 150 NaCl, 2 CaCl2, 5 KCl, 1 MgCl2, 10 HEPES, 12 Dextrose; External buffer for Qube® NaV1.5 recording: 120 N-Methyl-D-Glucamine, 40 NaCl, 1 KCl, 2.7 CaCl2), 5 HEPES, 0.5 MgCl2; and Internal buffer for Qube® recording: 120 CsF, 30 CsCl, 10 EGTA, 5 HEPES, 5 NaF, 2 MgCl2.
For all Qube® experiments offline analysis was used to determine percent inhibition as a function of drug concentration. IC50 values were determined by fitting to the Hill equation.
A general note: In patch-clamp work, channel activity is measured electrically.
Chain of human NaV 1.8 channels stably expressed in HEK 293 cells (Q9Y5Y9 whole entry): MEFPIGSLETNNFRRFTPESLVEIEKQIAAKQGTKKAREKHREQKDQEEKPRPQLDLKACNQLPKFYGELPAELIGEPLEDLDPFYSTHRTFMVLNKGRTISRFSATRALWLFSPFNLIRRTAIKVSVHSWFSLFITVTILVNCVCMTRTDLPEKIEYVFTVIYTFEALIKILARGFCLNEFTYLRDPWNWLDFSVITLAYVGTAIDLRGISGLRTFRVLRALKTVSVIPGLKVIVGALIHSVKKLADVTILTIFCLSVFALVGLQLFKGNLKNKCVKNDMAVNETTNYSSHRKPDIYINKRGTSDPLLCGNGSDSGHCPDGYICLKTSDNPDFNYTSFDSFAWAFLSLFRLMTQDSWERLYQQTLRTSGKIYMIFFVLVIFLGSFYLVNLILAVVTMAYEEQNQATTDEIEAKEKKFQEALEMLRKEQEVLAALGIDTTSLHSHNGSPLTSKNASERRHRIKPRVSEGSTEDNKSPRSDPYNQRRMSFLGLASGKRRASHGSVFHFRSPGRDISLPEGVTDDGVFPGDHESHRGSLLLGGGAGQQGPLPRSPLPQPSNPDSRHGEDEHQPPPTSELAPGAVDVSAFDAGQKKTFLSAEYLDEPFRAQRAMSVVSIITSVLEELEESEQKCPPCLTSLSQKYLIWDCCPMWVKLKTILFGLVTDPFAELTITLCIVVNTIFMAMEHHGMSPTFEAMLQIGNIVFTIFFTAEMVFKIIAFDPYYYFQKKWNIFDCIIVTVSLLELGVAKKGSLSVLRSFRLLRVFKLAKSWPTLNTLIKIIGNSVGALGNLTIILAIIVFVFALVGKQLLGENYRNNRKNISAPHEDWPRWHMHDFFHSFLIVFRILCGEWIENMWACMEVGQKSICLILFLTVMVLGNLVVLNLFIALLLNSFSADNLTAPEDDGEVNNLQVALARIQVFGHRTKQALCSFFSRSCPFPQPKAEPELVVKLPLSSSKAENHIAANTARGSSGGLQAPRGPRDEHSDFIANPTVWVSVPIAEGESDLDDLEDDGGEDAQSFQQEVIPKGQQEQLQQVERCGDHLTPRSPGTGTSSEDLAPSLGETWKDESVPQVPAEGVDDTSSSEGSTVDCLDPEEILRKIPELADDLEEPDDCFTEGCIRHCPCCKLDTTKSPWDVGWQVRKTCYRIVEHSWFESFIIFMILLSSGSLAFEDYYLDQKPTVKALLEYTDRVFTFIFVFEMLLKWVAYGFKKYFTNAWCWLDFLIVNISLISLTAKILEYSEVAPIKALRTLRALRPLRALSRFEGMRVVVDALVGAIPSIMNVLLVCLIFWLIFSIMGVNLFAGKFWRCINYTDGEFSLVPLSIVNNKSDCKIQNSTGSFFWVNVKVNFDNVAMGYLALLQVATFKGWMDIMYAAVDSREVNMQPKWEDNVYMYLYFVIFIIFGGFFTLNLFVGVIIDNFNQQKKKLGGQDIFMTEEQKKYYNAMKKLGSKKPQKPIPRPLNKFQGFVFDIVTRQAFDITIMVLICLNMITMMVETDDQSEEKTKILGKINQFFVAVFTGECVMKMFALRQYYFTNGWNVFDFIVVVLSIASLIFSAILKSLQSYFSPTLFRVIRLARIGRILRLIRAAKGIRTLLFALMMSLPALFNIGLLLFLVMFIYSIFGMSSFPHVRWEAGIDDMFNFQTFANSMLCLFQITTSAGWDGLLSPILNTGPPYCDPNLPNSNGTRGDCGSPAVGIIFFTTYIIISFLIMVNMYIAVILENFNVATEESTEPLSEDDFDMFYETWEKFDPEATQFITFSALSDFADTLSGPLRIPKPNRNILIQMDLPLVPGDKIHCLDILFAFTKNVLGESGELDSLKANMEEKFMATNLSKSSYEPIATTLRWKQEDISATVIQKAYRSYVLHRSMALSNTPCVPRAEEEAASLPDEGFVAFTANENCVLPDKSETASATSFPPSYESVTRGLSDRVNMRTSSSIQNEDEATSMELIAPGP
One may read the IC50 as the midpoint of a concentration-inhibition curve. Regarding `C[C@@H]1C(=O)NCCN1C(=O)NC(c1cnc(OCC(F)(F)F)s1)c1ccc(F)c(Cl)c1F` (single isomer, unassigned) [Example 13B, (2R)-N-((S or R)-(3-chloro-2,4-difluoro-phenyl)(2-(2,2,2-trifluoroethoxy)thiazol-5-yl)methyl)-2-methyl-3-oxopiperazine-1-carboxamide], the IC50 turned out to be 9.42 nM. The figure for `C[C@@H]1C(=O)NCCN1C(=O)NC(c1cnc(OC(F)F)s1)c1ccc(F)c(Cl)c1F` (single isomer, unassigned) [Example 14A, (2R)-N-((R or S)-(3-chloro-2,4-difluorophenyl)(2-(difluoromethoxy)thiazol-5-yl)methyl)-2-methyl-3-oxopiperazine-1-carboxamide] is 5.57 nM.

With `C[C@@H]1C(=O)NCCN1C(=O)NC(c1cnc(OC(F)F)s1)c1ccc(F)c(Cl)c1F` (single isomer, unassigned) [Example 14B, (2R)-N-((S or R)-(3-chloro-2,4-difluorophenyl)(2-(difluoromethoxy)thiazol-5-yl)methyl)-2-methyl-3-oxopiperazine-1-carboxamide], the IC50 worked out at 101 nM. `C[C@@H]1C(=O)NCCN1C(=O)NC(c1ccc(C(F)(F)F)nc1)c1ccc(F)c(Cl)c1F` (single isomer, unassigned) [Example 15A]: the IC50 stood at 4.74 nM. For the compound `C[C@@H]1C(=O)NCCN1C(=O)NC(c1ccc(C(F)(F)F)nc1)c1ccc(F)c(Cl)c1F` (single isomer, unassigned) [Example 15B], the IC50 was 59.9 nM. With `C[C@@H]1C(=O)NCCN1C(=O)NC(c1ccc(C(F)(F)F)nc1)c1ccc(F)c(Cl)c1` (single isomer, unassigned) [Example 16A, (2R)-N-((R or S)-(3-chloro-4-fluorophenyl)(6-(trifluoromethyl)pyridin-3-yl)methyl)-2-methyl-3-oxopiperazine-1-carboxamide], the IC50 stood at 13.5 nM. `C[C@@H]1C(=O)NCCN1C(=O)NC(c1ccc(C(F)(F)F)nc1)c1ccc(F)c(Cl)c1` (single isomer, unassigned) [Example 16B, (2R)-N-((S or R)-(3-chloro-4-fluorophenyl)(6-(trifluoromethyl)pyridin-3-yl)methyl)-2-methyl-3-oxopiperazine-1-carboxamide]: the IC50 came to 31.7 nM. `C[C@@H]1C(=O)NCCN1C(=O)NC(c1ccc(Cl)cc1)c1ccc(C(F)(F)F)nc1` (single isomer, unassigned) [Example 17A, (2R)-N-((R or S)-(4-chlorophenyl)(6-(trifluoromethyl)pyridin-3-yl)methyl)-2-methyl-3-oxopiperazine-1-carboxamide]: the IC50 was 101 nM.

With `C[C@@H]1C(=O)NCCN1C(=O)NC(c1ccc(Cl)cc1)c1ccc(C(F)(F)F)nc1` (single isomer, unassigned) [Example 17B, (2R)-N-((S or R)-(4-chlorophenyl)(6-(trifluoromethyl)pyridin-3-yl)methyl)-2-methyl-3-oxopiperazine-1-carboxamide], the concentration for half-maximal inhibition (IC50) was 34.6 nM. Turning to `C[C@@H]1C(=O)NCCN1C(=O)NC(c1ccc(C(F)(F)F)nc1)c1ccc(Cl)c(Cl)c1` (single isomer, unassigned) [Example 18A, (2R)-N-((R or S)-(3,4-dichlorophenyl)(6-(trifluoromethyl)pyridin-3-yl)methyl)-2-methyl-3-oxopiperazine-1-carboxamide], the IC50 worked out at 3.89 nM.

In the case of `C[C@@H]1C(=O)NCCN1C(=O)NC(c1ccc(C(F)(F)F)nc1)c1ccc(Cl)c(Cl)c1` (single isomer, unassigned) [Example 18B, (2R)-N-((S or R)-(3,4-dichlorophenyl)(6-(trifluoromethyl)pyridin-3-yl)methyl)-2-methyl-3-oxopiperazine-1-carboxamide], the IC50 turned out to be 4.69 nM. With `C[C@@H]1C(=O)NCCN1C(=O)NC(c1ccc(C(F)(F)F)nc1)c1ccc(F)c(OC(F)(F)F)c1` (single isomer, unassigned) [Example 19A, (2R)-N-((R or S)-(4-fluoro-3-(trifluoro-methoxy)phenyl)(6-(trifluoromethyl)pyridin-3-yl)methyl)-2-methyl-3-oxopiperazine-1-carboxamide], the IC50 worked out at 41.1 nM. The figure for `C[C@@H]1C(=O)NCCN1C(=O)NC(c1ccc(C(F)(F)F)nc1)c1ccc(F)c(OC(F)(F)F)c1` (single isomer, unassigned) [Example 19B, (2R)-N-((S or R)-(4-fluoro-3-(trifluoro-methoxy)phenyl)(6-(trifluoromethyl)pyridin-3-yl)methyl)-2-methyl-3-oxopiperazine-1-carboxamide] is 72.6 nM; for `C[C@@H]1C(=O)NCCN1C(=O)NC(c1ccc(OC(F)(F)F)cc1)c1cnc(C(F)(F)F)c(Cl)c1` (single isomer, unassigned) [Example 20A, (2R)-N-((R or S)-(5-chloro-6-(trifluoro-methyl)pyridin-3-yl)(4-(trifluoromethoxy)phenyl)methyl)-2-methyl-3-oxopiperazine-1-carboxamide] it is 4.01 nM; for `C[C@@H]1C(=O)NCCN1C(=O)NC(c1ccc(OC(F)(F)F)cc1)c1cnc(C(F)(F)F)c(Cl)c1` (single isomer, unassigned) [Example 20B, (2R)-N-((S or R)-(5-chloro-6-(trifluoro-methyl)pyridin-3-yl)(4-(trifluoromethoxy)phenyl)methyl)-2-methyl-3-oxopiperazine-1-carboxamide] it is 4 nM.

Regarding `C[C@@H]1C(=O)NCCN1C(=O)NC(c1ccc(OC(F)(F)F)c(F)c1)c1cnc(C(F)(F)F)c(Cl)c1` (single isomer, unassigned) [Example 21A, (2R)-N-((R or S)-(5-chloro-6-(trifluoro-methyl)pyridin-3-yl)(3-fluoro-4-(trifluoromethoxy)phenyl)methyl)-2-methyl-3-oxopiperazine-1-carboxamide], the IC50 was 1.45 nM. `C[C@@H]1C(=O)NCCN1C(=O)NC(c1ccc(OC(F)(F)F)c(F)c1)c1cnc(C(F)(F)F)c(Cl)c1` (single isomer, unassigned) [Example 21B, (2R)-N-((S or R)-(5-chloro-6-(trifluoro-methyl)pyridin-3-yl)(3-fluoro-4-(trifluoro-methoxy)phenyl)methyl)-2-methyl-3-oxo-piperazine-1-carboxamide]: the half-maximal inhibitory concentration (IC50) was determined as 7.71 nM. For `C[C@@H]1C(=O)NCCN1C(=O)NC(c1ccc(OC(F)(F)F)c(Cl)c1)c1cnc(C(F)(F)F)c(Cl)c1` (single isomer, unassigned) [Example 22A, (2R)-N-((R or S)-(3-chloro-4-(trifluoro-methoxy)phenyl)(5-chloro-6-(trifluoro-methyl)pyridin-3-yl)methyl)-2-methyl-3-oxopiperazine-1-carboxamide], the IC50 stood at 0.31 nM. The same measure for `C[C@@H]1C(=O)NCCN1C(=O)NC(c1ccc(OC(F)(F)F)c(Cl)c1)c1cnc(C(F)(F)F)c(Cl)c1` (single isomer, unassigned) [Example 22B, (2R)-N-((S or R)-(3-chloro-4-(trifluoro-methoxy)phenyl)(5-chloro-6-(trifluoro-methyl)pyridin-3-yl)methyl)-2-methyl-3-oxopiperazine-1-carboxamide]: 2.88 nM. Consider `C[C@@H]1C(=O)NCCN1C(=O)NC(c1cnc(C(F)(F)F)c(Cl)c1)c1ccc(Cl)c(C#N)c1` (single isomer, unassigned) [Example 23A, (2R)-N-((R or S)-(4-chloro-3-cyano-phenyl)(5-chloro-6-(trifluoromethyl)pyridin-3-yl)methyl)-2-methyl-3-oxopiperazine-1-carboxamide], for which the IC50 turned out to be 17 nM. With `C[C@@H]1C(=O)NCCN1C(=O)NC(c1cnc(C(F)(F)F)c(Cl)c1)c1ccc(Cl)c(C#N)c1` (single isomer, unassigned) [Example 23B, (2R)-N-((S or R)-(4-chloro-3-cyano-phenyl)(5-chloro-6-(trifluoromethyl)pyridin-3-yl)methyl)-2-methyl-3-oxopiperazine-1-carboxamide], the IC50 worked out at 6.06 nM.

Consider `C[C@@H]1C(=O)NCCN1C(=O)NC(c1ccc(C#N)c(Cl)c1)c1cnc(C(F)(F)F)c(Cl)c1` (single isomer, unassigned) [Example 24A, (2R)-N-((R or S)-(3-chloro-4-cyano-phenyl)(5-chloro-6-(trifluoromethyl)pyridin-3-yl)methyl)-2-methyl-3-oxopiperazine-1-carboxamide], for which the half-maximal inhibitory concentration (IC50) came to 22.3 nM.

Source of the values: patent US20240246932A1 (Merck Sharp & Dohme LLC, priority 2021, published 2024).
